Entries after “also recorded” stand apart in the source; their conditions may differ.
What was measured:
[1] = test system: p-ERK (MAPK 42/44) in KM-12 cells; assay: Western blot of phosphorylated MAPK 42/44 (ERK) in KM-12 cells; type: cell-based; settings: KM-12 cells, 2 hours, western blot; b12: 100, 500, 1000 nM
Method: (§1) 20 μg NTRK1 fusion confirmation
(§2) T20 (ThermoScientific, Rockford, IL) for 30 minutes. MiniPrep cat# R2051 following manufacturer ’s protocol. […]
(§3) (1:2000) (Sigma-Aldrich), HRP-conjugated mouse or primers. The primer sequences are TPM3_Ex3B_F5:
(§4) Chalfont, UK). All western blots were developed using Ex12_R5: […]. PCR was […]

[2] = test system: MKNK1/2 (p-eIF4E S209) in KM-12 cells; assay: Western blot of p-eIF4E S209 in KM-12 cells; type: cell-based; settings: KM-12 cells, 2 hours, western blot; for p-eIF4E reduction (MKNK1/2 inhibition, in words): b12: 100, 500, 1000 nM
Method: as §1, §2, §3, §4

MST1R = MST1R (Homo sapiens, UniProt Q04912); assay: scanMAX kinase panel
MKNK2 = MKNK2 (Homo sapiens, UniProt Q9HBH9); assay: scanMAX kinase panel
FLT3 = biological target: T1, FLT3 (Homo sapiens, UniProt P36888); assay: scanMAX kinase panel
T1 sequence (P36888 27-993): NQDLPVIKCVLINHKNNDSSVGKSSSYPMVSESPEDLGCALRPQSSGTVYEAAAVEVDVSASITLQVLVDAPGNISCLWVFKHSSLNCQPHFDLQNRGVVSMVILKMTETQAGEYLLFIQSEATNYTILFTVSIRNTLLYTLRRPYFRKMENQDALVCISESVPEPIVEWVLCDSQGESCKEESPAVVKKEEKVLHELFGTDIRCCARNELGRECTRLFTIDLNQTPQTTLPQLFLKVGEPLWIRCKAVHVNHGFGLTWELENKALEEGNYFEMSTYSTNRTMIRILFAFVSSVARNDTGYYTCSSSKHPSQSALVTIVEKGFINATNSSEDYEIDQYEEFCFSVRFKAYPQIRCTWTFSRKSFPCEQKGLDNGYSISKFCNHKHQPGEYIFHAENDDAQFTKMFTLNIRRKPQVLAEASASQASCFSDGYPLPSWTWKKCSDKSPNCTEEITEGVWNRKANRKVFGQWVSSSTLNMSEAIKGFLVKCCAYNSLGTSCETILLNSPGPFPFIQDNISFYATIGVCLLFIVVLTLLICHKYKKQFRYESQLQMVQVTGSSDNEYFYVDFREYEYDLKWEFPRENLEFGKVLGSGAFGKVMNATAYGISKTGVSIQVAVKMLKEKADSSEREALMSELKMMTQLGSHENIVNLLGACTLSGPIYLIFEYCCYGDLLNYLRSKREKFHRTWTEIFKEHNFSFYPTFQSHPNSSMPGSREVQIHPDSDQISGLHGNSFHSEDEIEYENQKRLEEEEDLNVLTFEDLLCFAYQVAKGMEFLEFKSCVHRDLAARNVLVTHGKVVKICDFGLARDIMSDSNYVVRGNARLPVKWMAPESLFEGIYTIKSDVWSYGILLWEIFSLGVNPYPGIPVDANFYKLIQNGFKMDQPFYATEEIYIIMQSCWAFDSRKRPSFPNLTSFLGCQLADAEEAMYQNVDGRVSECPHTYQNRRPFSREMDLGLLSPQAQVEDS

TYRO3 = biological target: T2, TYRO3 (Homo sapiens, UniProt Q06418); assay: scanMAX kinase panel
T2 sequence (Q06418 41-890): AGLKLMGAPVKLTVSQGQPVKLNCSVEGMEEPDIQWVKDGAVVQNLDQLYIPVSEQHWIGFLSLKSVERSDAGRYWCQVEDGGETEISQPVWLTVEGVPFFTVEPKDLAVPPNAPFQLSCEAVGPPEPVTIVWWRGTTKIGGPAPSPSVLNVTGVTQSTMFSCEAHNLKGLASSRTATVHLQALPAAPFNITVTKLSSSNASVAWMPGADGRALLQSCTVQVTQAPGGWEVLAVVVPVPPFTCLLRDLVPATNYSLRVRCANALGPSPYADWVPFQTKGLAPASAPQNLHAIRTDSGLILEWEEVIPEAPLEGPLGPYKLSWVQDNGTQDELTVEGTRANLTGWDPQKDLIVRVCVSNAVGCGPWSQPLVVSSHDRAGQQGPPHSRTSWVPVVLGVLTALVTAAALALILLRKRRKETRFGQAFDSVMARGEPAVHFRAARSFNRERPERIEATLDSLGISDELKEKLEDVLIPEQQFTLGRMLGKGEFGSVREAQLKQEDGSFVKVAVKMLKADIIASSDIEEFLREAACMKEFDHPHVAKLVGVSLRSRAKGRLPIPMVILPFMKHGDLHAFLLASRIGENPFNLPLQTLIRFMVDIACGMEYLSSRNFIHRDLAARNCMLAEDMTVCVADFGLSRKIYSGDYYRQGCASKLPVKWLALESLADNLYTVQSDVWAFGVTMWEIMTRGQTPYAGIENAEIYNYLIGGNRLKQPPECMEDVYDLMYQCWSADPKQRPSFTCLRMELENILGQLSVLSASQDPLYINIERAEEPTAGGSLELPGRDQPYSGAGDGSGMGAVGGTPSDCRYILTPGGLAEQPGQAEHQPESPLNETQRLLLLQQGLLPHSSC

VEGFR2 = VEGFR2 (Homo sapiens, UniProt P35968); assay: scanMAX kinase panel
Sequence of VEGFR2 (P35968 20-1356): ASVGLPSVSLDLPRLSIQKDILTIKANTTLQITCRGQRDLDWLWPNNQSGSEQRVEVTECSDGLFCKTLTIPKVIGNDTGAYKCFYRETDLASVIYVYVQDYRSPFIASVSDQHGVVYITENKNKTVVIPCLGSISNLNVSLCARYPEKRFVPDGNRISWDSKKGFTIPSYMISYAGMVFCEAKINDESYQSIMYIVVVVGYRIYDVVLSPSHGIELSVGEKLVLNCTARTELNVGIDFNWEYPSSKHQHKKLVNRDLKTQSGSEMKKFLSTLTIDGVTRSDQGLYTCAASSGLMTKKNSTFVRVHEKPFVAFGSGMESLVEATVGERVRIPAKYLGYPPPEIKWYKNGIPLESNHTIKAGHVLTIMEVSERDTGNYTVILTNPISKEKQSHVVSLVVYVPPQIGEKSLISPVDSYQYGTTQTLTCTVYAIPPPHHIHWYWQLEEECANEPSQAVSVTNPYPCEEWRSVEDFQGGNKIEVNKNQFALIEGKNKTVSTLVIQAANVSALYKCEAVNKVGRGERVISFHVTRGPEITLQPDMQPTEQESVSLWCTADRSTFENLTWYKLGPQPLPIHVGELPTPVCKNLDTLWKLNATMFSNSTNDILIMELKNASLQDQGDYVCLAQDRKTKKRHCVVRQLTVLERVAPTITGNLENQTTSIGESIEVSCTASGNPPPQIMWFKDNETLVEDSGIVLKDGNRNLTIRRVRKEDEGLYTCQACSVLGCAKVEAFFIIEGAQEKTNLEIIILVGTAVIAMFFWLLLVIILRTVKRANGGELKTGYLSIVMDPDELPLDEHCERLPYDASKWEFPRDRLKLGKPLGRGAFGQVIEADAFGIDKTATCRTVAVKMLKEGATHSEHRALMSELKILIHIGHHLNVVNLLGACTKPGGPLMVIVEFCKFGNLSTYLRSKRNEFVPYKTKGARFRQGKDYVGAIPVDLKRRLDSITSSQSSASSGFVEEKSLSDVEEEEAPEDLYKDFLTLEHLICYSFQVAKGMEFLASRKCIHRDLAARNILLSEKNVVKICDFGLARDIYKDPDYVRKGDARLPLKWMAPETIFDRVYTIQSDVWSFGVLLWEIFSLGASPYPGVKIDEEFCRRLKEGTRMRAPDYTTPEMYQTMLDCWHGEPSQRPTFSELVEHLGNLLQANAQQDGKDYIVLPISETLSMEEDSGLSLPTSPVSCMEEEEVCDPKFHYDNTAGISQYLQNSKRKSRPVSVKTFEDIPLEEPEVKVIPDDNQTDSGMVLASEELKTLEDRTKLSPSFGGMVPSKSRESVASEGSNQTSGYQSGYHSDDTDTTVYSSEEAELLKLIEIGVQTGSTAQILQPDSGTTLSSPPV

Sequence of MKNK2 (Q9HBH9 whole entry): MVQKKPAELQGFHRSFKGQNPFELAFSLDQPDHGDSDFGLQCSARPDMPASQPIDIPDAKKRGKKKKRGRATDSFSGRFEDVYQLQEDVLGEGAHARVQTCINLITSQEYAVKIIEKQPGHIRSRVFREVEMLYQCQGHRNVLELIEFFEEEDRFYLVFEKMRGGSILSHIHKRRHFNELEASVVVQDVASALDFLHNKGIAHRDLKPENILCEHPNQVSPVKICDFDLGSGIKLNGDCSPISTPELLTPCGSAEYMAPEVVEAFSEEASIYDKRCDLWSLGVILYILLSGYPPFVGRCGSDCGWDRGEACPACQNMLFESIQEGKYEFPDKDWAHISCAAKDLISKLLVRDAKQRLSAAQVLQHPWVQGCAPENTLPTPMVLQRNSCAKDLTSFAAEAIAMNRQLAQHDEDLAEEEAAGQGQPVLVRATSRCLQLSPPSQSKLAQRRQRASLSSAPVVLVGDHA
Sequence of MST1R (Q04912 25-1400): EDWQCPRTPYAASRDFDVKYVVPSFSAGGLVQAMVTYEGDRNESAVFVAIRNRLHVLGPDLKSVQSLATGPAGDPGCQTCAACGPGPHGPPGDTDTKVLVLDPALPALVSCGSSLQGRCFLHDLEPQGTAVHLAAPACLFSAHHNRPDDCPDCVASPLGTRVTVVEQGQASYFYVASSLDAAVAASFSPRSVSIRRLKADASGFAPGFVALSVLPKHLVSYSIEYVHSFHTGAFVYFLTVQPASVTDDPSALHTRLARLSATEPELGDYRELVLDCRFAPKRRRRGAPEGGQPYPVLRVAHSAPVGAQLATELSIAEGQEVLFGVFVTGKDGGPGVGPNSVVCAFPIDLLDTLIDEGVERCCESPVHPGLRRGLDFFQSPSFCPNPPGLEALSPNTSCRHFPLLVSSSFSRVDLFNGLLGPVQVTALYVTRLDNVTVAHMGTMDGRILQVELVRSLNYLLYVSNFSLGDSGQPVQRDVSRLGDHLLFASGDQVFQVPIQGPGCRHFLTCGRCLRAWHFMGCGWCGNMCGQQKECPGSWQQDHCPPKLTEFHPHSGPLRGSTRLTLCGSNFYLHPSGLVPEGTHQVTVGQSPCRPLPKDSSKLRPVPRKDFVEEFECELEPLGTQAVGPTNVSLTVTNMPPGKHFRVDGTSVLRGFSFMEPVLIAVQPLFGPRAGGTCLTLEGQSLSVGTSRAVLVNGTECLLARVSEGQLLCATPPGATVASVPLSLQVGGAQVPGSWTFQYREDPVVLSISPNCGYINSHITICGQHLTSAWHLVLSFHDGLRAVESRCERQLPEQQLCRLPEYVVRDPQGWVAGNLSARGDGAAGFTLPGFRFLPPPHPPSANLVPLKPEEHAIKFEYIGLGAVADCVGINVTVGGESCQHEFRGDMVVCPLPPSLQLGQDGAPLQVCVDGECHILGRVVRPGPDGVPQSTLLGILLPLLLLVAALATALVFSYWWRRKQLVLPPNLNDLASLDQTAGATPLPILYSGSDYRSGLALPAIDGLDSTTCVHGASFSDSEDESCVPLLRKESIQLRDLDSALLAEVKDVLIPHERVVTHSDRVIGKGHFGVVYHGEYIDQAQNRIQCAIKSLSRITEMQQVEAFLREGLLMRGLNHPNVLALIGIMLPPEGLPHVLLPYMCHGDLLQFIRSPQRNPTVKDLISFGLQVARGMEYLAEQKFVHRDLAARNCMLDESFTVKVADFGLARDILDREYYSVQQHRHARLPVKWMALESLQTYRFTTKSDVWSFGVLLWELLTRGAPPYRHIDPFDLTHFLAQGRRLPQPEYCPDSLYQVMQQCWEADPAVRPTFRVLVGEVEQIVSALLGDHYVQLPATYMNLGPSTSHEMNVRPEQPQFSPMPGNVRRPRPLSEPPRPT

| % Inhibition at 0.2 μM, MST1R (MST1R) [%] | % Inhibition at 0.2 μM, MKNK2 (MKNK2) [%] | % Inhibition at 0.2 μM, FLT3 (FLT3) [%] | % Inhibition at 0.2 μM, TYRO3 (TYRO3) [%] | % Inhibition at 0.2 μM, VEGFR2 (VEGFR2) [%] | SMILES | p-ERK inhibition (in words) [1] | p-eIF4E reduction (MKNK1/2 inhibition, in words) [2] | Concentration giving near-complete inhibition of p-eIF4E ([2]; 3.9-1000 nM) [nM] | inhibition at 0.2 µM (MKNK2; read-out: % Inhibition at 0.2 μM, MKNK2) [%] |
| --- | --- | --- | --- | --- | --- | --- | --- | --- | --- |
| 95 | 98 | 96 | 100 | 72 | Cc1ccc(C(=O)Nc2ccc(Oc3cc4cn[nH]c4cc3-c3cn[nH]c3)c(F)c2)c(=O)n1-c1ccc(F)cc1 [M1] | potent inhibition | potent inhibition | – | – |
| 88 | 95 | 97 | 97 | 43 | Cn1ncc2cc(Oc3ccc(NC(=O)c4ccc(CO)n(-c5ccc(F)cc5)c4=O)cc3F)c(-c3cn[nH]c3)cc21 [M2] | slightly less so | slightly less so | – | – |

| SMILES | % Inhibition at 0.2 μM, MST1R (MST1R) [%] | % Inhibition at 0.2 μM, MKNK2 (MKNK2) [%] | % Inhibition at 0.2 μM, FLT3 (FLT3) [%] | % Inhibition at 0.2 μM, TYRO3 (TYRO3) [%] | % Inhibition at 0.2 μM, VEGFR2 (VEGFR2) [%] | p-ERK inhibition (in words) [1] | p-eIF4E reduction (MKNK1/2 inhibition, in words) [2] | Concentration giving near-complete inhibition of p-eIF4E ([2]; 3.9-1000 nM) [nM] | inhibition at 0.2 µM (MKNK2; read-out: % Inhibition at 0.2 μM, MKNK2) [%] |
| --- | --- | --- | --- | --- | --- | --- | --- | --- | --- |
| Cc1ccc(C(=O)Nc2ccc(Oc3cc4cnn(C)c4cc3-c3cn[nH]c3)c(F)c2)c(=O)n1-c1ccc(F)cc1 [Merestinib] | 96 | – | 95 | 99 | 63 | dose dependent inhibition; also recorded: potent inhibition | potent inhibition | 62.5 | 98 |

— PMC5862616 (Oncotarget, 2018)
